Patent US10851400B2, “Assay for high-throughput identification of therapeutic compounds” (priority 2016, dated 2020)
In brackets after ≈: the same amount, converted by molar mass.

Columns and labels:
[1] = test system: Acinetobacter baumanii, ATCC 19606; experiment: Broth minimum inhibitory concentration (MIC) assay of K15; assay type: cell-based, Acinetobacter baumannii; settings: A. baumannii; broth MIC in CAMHB, 18-24 hours
Experimental: (§1) Peptoid K15 was analyzed via a traditional broth minimum inhibitor concentration (MIC) assay against seven different ESKAPE pathogens (Acinetobacter baumanii, ATCC 19606; Enterococcus faecalis, ATCC 29212; Enterococcus faecium, ATCC 19434; Escherichia coli, ATCC 25922; Klebsiella pneumoniae, ATCC 700603; Pseudomonas aeruginosa, ATCC 27853; Staphylococcus aureus, ATCC 29213). For each of the bacterial strains screened in the ESKAPE panel, 1-3 isolated colonies were collected from a TSA plate by a flame sanitized wire loop and resuspended in 5 mL of TSB. The solutions were incubated at 37° C. for 18-24 hours. After the growth period, the turbidity was measured at 600 nm and adjusted to an optical density of 0.08-0.13 by diluting with TSB for an approximate concentration of 1×10^8 CFU/mL. Once the desired OD was achieved, 20 μL of the bacteria suspension were diluted 1:20 in 380 μL Cation Adjusted Mueller-Hinton broth (CAMHB) for a final concentration of 5×10^6 CFU/mL.
(§2) 4 μL of a 10 mM stock of K15 were diluted in […] CAMHB for each bacterial strain assayed (a total of 28 μL stock in 2.478 mL broth for ESKAPE panel). […]
(§3) The prepared plates were incubated for another 18-24 hours. Their respective absorbance at 600 nm was analyzed on a SpectraMax M5 Plate Reader. […] Absorbance at 555, 570, and 585 nm was analyzed to determine viable cells having survived treatment by the antimicrobial compound. […]

[2] = test system: Enterococcus faecium, ATCC 19434; experiment: as above; assay type: cell-based; settings: E. faecium; broth MIC in CAMHB, 18-24 hours
Experimental: as §1, §2, §3

E. coli (ATCC 25922) = experiment: PLAD assay, zone of inhibition around beads in soft agar
ESKAPE pathogens = experiment: Broth MIC assay of K15 against the panel of seven ESKAPE pathogens; assay type: cell-based; settings: seven pathogens tested
Experimental: as §1, §2, §3

CCCCCCCCCCCCCNCC(=O)N(CCN)CC(=O)N(CC(N)=O)C(C)c1ccccc1 (stereo not drawn) [K15, NTri-Nae-NPea]
MIC [1]: 25 mg/L (≈ 48.3 µM)
MIC [2]: 25 mg/L (≈ 48.3 µM)
zone of inhibition (E. coli (ATCC 25922); proof-of-concept library on PLAD linker, 14 mM TCEP, 37° C. for 18 hours): largest average zone of inhibition
antimicrobial efficacy against the ESKAPE pathogens (ESKAPE pathogens): modest efficacy against six of the seven pathogens tested

NTri-NLys-NPea-NPea-NLys [C134mer, reference compound]
zone of inhibition (E. coli (ATCC 25922); PLAD linked C134mer beads, DTT, BME or TCEP at 0, 2, 6, 10, and 14 mM): concentration dependent zones of inhibition
